Values of other authors in patent US10238626B2, “Therapeutic compounds” (ARIZONA BOARD OF REGENTS ON BEHALF OF ARIZONA STATE …, priority 2017, dated 2019).
pEC50, pKd: −log10 of the molar value.

Key:
hRXRβ = hRXRβ (Homo sapiens, UniProt P28702); details: read-out: EC50 for the hRXRβ isoform; literature (Santin et al. 2009)
hRXR [1] = details: Caco-2 cells; literature (Wagner et al. 2009)
hRXR [2] = details: Caco-2 cells; literature (Wagner et al. 2009); remark: listed apart in the source

hRXRβ, sequence (P28702 whole entry, canonical isoform): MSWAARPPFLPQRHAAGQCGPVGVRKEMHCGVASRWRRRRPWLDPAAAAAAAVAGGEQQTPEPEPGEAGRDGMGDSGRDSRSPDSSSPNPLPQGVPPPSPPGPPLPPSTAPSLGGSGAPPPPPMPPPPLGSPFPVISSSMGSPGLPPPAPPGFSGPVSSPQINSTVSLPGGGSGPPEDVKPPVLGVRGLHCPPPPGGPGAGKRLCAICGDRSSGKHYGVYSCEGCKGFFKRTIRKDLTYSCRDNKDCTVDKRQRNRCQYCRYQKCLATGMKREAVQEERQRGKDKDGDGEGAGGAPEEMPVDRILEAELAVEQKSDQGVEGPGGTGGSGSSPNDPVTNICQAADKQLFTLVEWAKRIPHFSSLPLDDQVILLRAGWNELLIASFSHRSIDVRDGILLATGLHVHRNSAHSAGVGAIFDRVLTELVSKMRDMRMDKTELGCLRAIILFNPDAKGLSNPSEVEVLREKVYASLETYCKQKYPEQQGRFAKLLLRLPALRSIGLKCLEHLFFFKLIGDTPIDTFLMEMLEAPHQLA

Cc1cc2c(cc1-c1cc(/C=C/C(=O)O)ccc1O)C(C)(C)CCC2(C)C [CD3254]
pEC50 (hRXRβ): ~8.00

C=C(c1ccc(C(=O)O)c(F)c1)c1cc2c(cc1C)C(C)(C)CCC2(C)C [compound 3]
pEC50 (hRXR [1]): 7.37 | pKd (hRXR [2]): 7.92
